In patent publication US20260306491A1, “EGFR INHIBITOR FOR TREATING CANCERS COMPRISING ATYPICAL EGFR MUTATIONS” (ORIC Pharmaceuticals, Inc., priority 2023, published 2026):

Key:
Assay in all cases: Cell viability (CellTiter-Glo)
Format in all cases: cell-based
[1] = tested on: Ba/F3 cells expressing EGFR_G719S; settings: Mus musculus, BaF3; 72 hours; average ± standard deviation; read-out: Absolute EC50 (50% growth)
Protocol: (§1) A cell-based assay was used to evaluate the potency of Compound I on cells where the growth of the cells is either driven by EGFR wild type (WT) or cells comprising atypical mutant EGFR proteins. Cell viability was assessed following treatment with compounds and the assay developed with CellTiterGlo (CTG) reagent that measures ATP levels in cells. Compound I was dissolved in DMSO to generate a 10 mM stock solution. Dosing solutions were prepared by serial dilution in DMSO followed by dilution in complete media to result in a 0.4% DMSO in the assay. Ba/F3 cells expressing EGFR mutants EGFR_G719S, EGFR_G724S, EGFR_L718Q, EGFR_L718V, EGFR_L858R/1L718Q, EGFR_L858R/1L718V, EGFR_del19/L792K. EGFR_del19/G796S were generated following co-transfection of the EGFR mutant of interest with PhiC31 integrase. Two days following transfection, the media was changed and replaced with media lacking mIL3 with the addition of human EGF (hEGF) as well as puromycin to select stable cell lines. After the cell lines were established genomic DNA (gDNA) was extracted to confirm the sequence of the construct of interest. The culture Media for Ba/F3 EGFR mutants was RPMI+10% FBS+2 mM L-Glut±10 ng/ml hEGF+0.5 pig/ml puromycin. The following reagents were used to conduct the assays: RPMI1640 with phenol red (Corning, Cat #: 15-040-CV); Fetal Bovine Serum (FBS) (Omega Scientific, Cat #: FR-11); Human Epidermal Growth Factor (hEGF) (Cell Signaling Cat #8916SC); L-Glutamine (Corning, Cat #: 25-005-CI); Puromycin (Gibco, Cat #A11138-03); assay media was the same as culture medium; CellTiter-Glo® 2.0 Cell Viability Assay (Promega, Cat #G9243), DMSO (Sigma, Cat #: D2660). The following equipment was used to conduct the assays: Bravo Liquid Handler (Agilent #G5523BA); and the following supplies: 96-well Non-Sterile Polypropylene V Bottom Plates (Corning, Cat #: 3363); 384-well Sterile White with Flat Clear Bottom Plates (Greiner, 781098); and PerkinElmer TopSeal-A Plus plate seal (Cat. #6050185).
(§2) Ba/F3 cell lines expressing either EGFR WT or mutant proteins were cultured in complete culture media at exponential growth phase for at least one week prior to assay. The different cell suspensions were counted and seeded into 384-well Sterile White Flat Clear Bottom Plates using a Bravo liquid handler, according to the appropriate cell number in 36 μl of media per well as follows: (a) Ba/F3-WT-EGFR: 2000 cells per well of a 384 well plate; (b) Ba/F3-G719S-EGFR: 2000 cells per well of a 384 well plate; (c) Ba/F3 G724S-EGFR: 1000 cells per well of a 384 well plate; (d) Ba/F3-L718Q-EGFR: 1000 cells per well of a 384 well plate; (e) Ba/F3-L718V-EGFR: 1000 cells per well of a 384 well plate; (f) Ba/F3-L858R/L718Q-EGFR: 1000 cells per well of a 384 well plate; (g) Ba/F3-L858R/L718V-EGFR: 1000 cells per well of a 384 well plate; (h) Ba/F3-del19/L792H-EGFR: 1000 cells per well of a 384 well plate; (i) Ba/F3-del19/G796S-EGFR: 1000 cells per well of a 384 well plate.
(§3) Compound I was solubilized in DMSO as 10 mM stock solutions. These were stored as aliquots at −80° C. and used only once after thawing. The highest concentration of Compound I in the final assay plate was 500 nM. To prepare the compound dilutions intermediate dilution plates were prepared using the Bravo liquid handler by performing 12-point ⅓-fold serial dilutions in DMSO to a final concentration of 250-fold the concentration in the final assay plate, followed by a 1/25 dilution into complete assay media. Compound dilutions in media were added to cells (final assay plate) by dispensing 4 μL into cells plated the same day in 36 μl of medium of media. Plates were placed in a 37° C., 5% CO2 incubator. Following 72 hours of incubation, plates were left to equilibrate at room temperature before the addition of 1:1 ratio of CTG 2.0 using the Bravo liquid handler. […]

[2] = tested on: Ba/F3 cells expressing EGFR_L858R/L718Q; settings: Mus musculus, BaF3; 72 hours; average ± standard deviation; read-out: Absolute EC50 (50% growth)
Protocol: as §1, §2, §3

[3] = tested on: Ba/F3 cells expressing EGFR_L718Q; settings: Mus musculus, BaF3; 72 hours; average ± standard deviation; read-out: Absolute EC50 (50% growth)
Protocol: as §1, §2, §3

[4] = tested on: Ba/F3 cells expressing EGFR WT; settings: Mus musculus, BaF3; 72 hours; average ± standard deviation; read-out: Absolute EC50 (50% growth)
Protocol: as §1, §2, §3

[5] = tested on: Ba/F3 cells expressing EGFR_L718V; settings: Mus musculus, BaF3; 72 hours; average ± standard deviation; read-out: Absolute EC50 (50% growth)
Protocol: as §1, §2, §3

[6] = tested on: Ba/F3 cells expressing EGFR_del19/G796S; settings: Mus musculus, BaF3; 72 hours; average ± standard deviation; read-out: Absolute EC50 (50% growth)
Protocol: as §1, §2, §3

[7] = tested on: Ba/F3 cells expressing EGFR_L858R/L718V; settings: Mus musculus, BaF3; 72 hours; average ± standard deviation; read-out: Absolute EC50 (50% growth)
Protocol: as §1, §2, §3

[8] = tested on: Ba/F3 cells expressing EGFR_del19/L792H; settings: Mus musculus, BaF3, 72 h, read-out: Absolute EC50 (50% growth)
Protocol: as §1, §2, §3

[9] = tested on: Ba/F3 cells expressing EGFR_G724S; settings: Mus musculus, BaF3; 72 hours; average ± standard deviation; read-out: Absolute EC50 (50% growth)
Protocol: as §1, §2, §3

C=CC(=O)Nc1cc(Nc2cc(N3OCC[C@@H]3c3cc(F)cc(F)c3)ncn2)c(OC)cc1N1CCC(N2CCN(C3CC3)CC2)CC1 [Compound I, N-[2-[4-(4-cyclopropyl-1-piperazinyl)-1-piperidinyl]-5-[[6-[(3R)-3-(3,5-difluorophenyl)-2-isoxazolidinyl]-4-pyrimidinyl]amino]-4-methoxyphenyl]-2-propenamide]
EC50 [1]: 0.7 ± 0.1 nM
EC50 [2]: 0.8 ± 0.5 nM
EC50 [3]: 27.1 ± 6.4 nM
EC50 [4]: 6.6 ± 4.3 nM
EC50 [5]: 0.9 ± 0.8 nM
EC50 [6]: 1.1 ± 0.7 nM
EC50 [7]: 0.2 ± 0.2 nM
EC50 [8]: 2.5 ± 1.8 nM
EC50 [9]: 1.4 ± 0.9 nM
